Series [1] addresses T1, human MATE1 (Homo sapiens, UniProt Q96FL8).
T1 construct: expressed in transfected cells; host or cells: HEK293 (HEK293/hMATE1; gift from Dr. Inoue, Tokyo University of Pharmacy and Life Science)
T1 sequence (Q96FL8 1-570): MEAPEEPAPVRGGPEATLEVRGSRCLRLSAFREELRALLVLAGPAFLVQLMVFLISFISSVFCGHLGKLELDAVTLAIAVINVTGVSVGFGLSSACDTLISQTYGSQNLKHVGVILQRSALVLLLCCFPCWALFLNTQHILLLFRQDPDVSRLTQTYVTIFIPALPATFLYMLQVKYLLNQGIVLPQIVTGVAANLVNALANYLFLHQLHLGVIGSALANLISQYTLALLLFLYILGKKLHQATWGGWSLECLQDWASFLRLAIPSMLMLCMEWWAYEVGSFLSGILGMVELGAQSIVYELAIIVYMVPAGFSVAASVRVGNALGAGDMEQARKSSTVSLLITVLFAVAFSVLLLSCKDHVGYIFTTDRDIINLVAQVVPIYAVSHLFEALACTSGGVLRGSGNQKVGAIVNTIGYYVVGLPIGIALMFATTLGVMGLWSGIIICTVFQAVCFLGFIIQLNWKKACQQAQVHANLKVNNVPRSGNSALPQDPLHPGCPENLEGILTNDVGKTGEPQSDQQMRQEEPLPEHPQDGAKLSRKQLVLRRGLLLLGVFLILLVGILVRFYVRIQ
The experiment in a line: Uptake of [3H]MPP+ by MATE1-expressing HEK293 cells. It is filed as cell-based. The settings on record: for MATE1-mediated uptake of MPP+, % of Control: after subtraction of uptake by mock cells. The protocol:
HEK293 cells transfected with human MATE1 (HEK293/hMATE1) and vector alone (mock) were gifts from Dr. Inoue (Tokyo University of Pharmacy and Life Science). […] HEK293/mock and HEK293/hMATE1 cells were plated at a density of 3.0 × 10^5 cells/well on 24-well plates and cultured for two days before an uptake assay. […] Radioactivity was measured with a liquid scintillation counter (Hitachi Aloka Medical, Tokyo, Japan). Part of the lysate was used for the determination of total protein amount with Bio-Rad protein assay dye reagent. Uptake of MPP^+ was expressed as a cell-to-medium ratio (μL/mg protein) obtained by dividing the uptake amount by the concentration of substrate in the TM. Percentages of control were calculated as the ratio of MATE1-mediated uptake of MPP^+ that obtained after subtraction of the uptake of MPP^+ by mock cells in compound treated groups to that in control group.

Series [2] deals with Mock cells. Kind of series: Uptake of MPP+ by mock cells (background for MATE1-expressing cells). In kind it is cell-based. The following applies: 100 µM; replicates and mean. The protocol:
Dunnett's test was used for uptake study to compare the control group to groups treated with drugs.
Percentages of control were calculated as the ratio of MATE1-mediated uptake of MPP^+ that obtained after subtraction of the uptake of MPP^+ by mock cells in compound treated groups to that in control group.

Series [3] is described as follows: Plasma concentration of oxonic acid and adenine in hyperuricemic rats. In kind it is in vivo, rat. The following applies: hyperuricemic rats given oral oxonic acid […] and adenine 0.1 g/kg; detection limit 100 μM for oxonic acid.
Series [4] is described as follows: Inulin clearance in control and hyperuricemic rats. It is filed as in vivo, rat. The following applies: Day 10, inulin 100 mg/kg iv. The method, then:
Urine was collected at the designated times. […] All samples were stored at -80°C until measurement.
Inulin was measured by the anthrone method. After adding 500 mL concentrated sulfuric acid to 200 mL distilled water and cooling the solution to room temperature, 1.4 g anthrone (Sigma Aldrich) was added to it at 56°C to prepare the anthrone reagent. An aliquot of the reagent (400 μL) was added to 10 μL of plasma or urine suitably diluted with saline. The tube containing the sample was immersed in ice-cold water, shaken well and then allowed to react for 10 min at 56°C. The vial was immersed in ice-cold water to stop the reaction. The absorbance at 636 nm was measured with a spectrophotometer (UVmini1240, Shimadzu).

A short description of series [5]: Pharmacokinetic study after intravenous administration in control and hyperuricemic rats (plasma, urine, kidney).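 On all read-outs here: Pentobarbital-anesthetized rats with cannulated bladder, jugular plasma, timed urine and saline kidney homogenate assayed by HPLC or LC-MS/MS, Kp as kidney over plasma level at 4 h.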 The settings on record: for AUC0-4 / Kp, kidney / Kp at 4 h: creatinine; for Kp at 4 h / AUC(0-t) / concentration at 0.5 min / concentration at 30 min / concentration at 60 min: rat; for Kp at 4 h: kidney; for AUC(0-t) / concentration at 0.5 min / concentration at 30 min / concentration at 60 min: plasma; for concentration at 0.5 min / concentration at 30 min / concentration at 60 min: Plasma concentration.
Procedure: Rats were anesthetized with pentobarbital, and the bladder was cannulated with polyethylene tubing (inside diameter 0.5 mm, outside diameter 0.8 mm). […] Blood was drawn through the jugular vein, and plasma was obtained by centrifugation at 3,000 rpm for 10 min at 4°C. Urine was collected at the designated times. […] All samples were stored at -80°C until measurement.
If necessary, plasma and urine were diluted 10- to 100-fold and 10- to 10000-fold with saline, respectively, for high-performance liquid chromatography (HPLC) or liquid chromatography/tandem mass spectrometry (LC-MS/MS) measurement. […] Prepared samples were mixed for 1 min and centrifuged at 15,000 rpm for 5 min at 4°C. The resultant supernatant was used for LC-MS/MS analysis. The LC-MS/MS system consisted of a triple-quadrupole mass spectrometer (API 3200^TM, SCIEX, Foster City, CA) coupled with an ultrafast liquid chromatography system (LC-20AD, Shimadzu, Kyoto, Japan). […] For metformin, the mobile phase consisted of 0.1% formic acid and acetonitrile (30 : 70), and the flow rate was 0.4 mL/min.
The plasma concentration-time data were analyzed by non-compartmental analysis. The area under the plasma concentration-time curve (AUC0-4) was obtained by application of the trapezoidal rule from time 0 to 4 h. AUC from 0 to infinity (AUCinf) was estimated by extrapolation to infinity.

Where [6] appears, read: control rats, individual rats and mean.
Where [7] appears, read: hyperuricemic rats, individual rats and mean.

“And” between values parts separate entries of the source, which are not always exact repeats. Equal entries are not always repeated.

Regarding `CN/C(=N/CCSCc1nc[nH]c1C)NC#N` [cimetidine], the “MATE1-mediated uptake of MPP+, % of Control” value in series [1] (100 µM, replicates and mean, 100 µM) is 5.0 % of Control and 14.6 % of Control. Further, the “C/M ratio of MPP+ uptake, MATE1-expressing cells” value in series [1] (100 µM, replicates and mean) was 36.0 µL/mg protein and 18.8 µL/mg protein. In series [1] (positive control Mate1 inhibitor, concentration not given, HEK293/hMATE1), the “MATE1-mediated uptake of [3H]MPP+, percentage of control” value stood at 8.2%. Also, in series [2], the “C/M ratio of MPP+ uptake, Mock cells” value was 9.40 µL/mg protein and 10.25 µL/mg protein and 9.69 µL/mg protein.

For `Nc1ncnc2nc[nH]c12` [adenine], the “MATE1-mediated uptake of MPP+, % of Control” value in series [1] (Adenine 50 µM, replicates and mean) is 68.3 % of Control and 107.0 % of Control; in series [1] (Adenine 500 µM, replicates and mean), 89.5 % of Control and 71.0 % of Control and 100.5 % of Control; in series [1] (Adenine 500 µM, replicates and mean, mean), 87.0 % of Control. Moreover, the Plasma concentration entry in series [3] is “lower than 100 μM”.

Turning to `O=c1[nH]c(=O)c2[nH]c(=O)[nH]c2[nH]1` [uric acid], the “MATE1-mediated uptake of [3H]MPP+, percentage of control” value amounted to 102.0% in series [1] (50 μM test compound, HEK293/hMATE1 minus mock, 0.25 nM [3H]MPP+, 0.5 min, 37°C) and 100.7% in series [1] (500 μM test compound, HEK293/hMATE1 minus mock, 0.25 nM [3H]MPP+, 0.5 min, 37°C). Moreover, in series [1] (50 and 500 μM of each), the “Inhibitory effect on MATE1-mediated MPP+ uptake” value is “No inhibitory effects”. In addition, the “MATE1-mediated uptake of MPP+, % of Control” value is 96.8 % of Control and 81.0 % of Control and 128.4 % of Control in series [1] (Uric acid 50 µM, replicates and mean); 102.0 % of Control in series [1] (Uric acid 50 µM, replicates and mean, mean); 87.8 % of Control and 117.9 % of Control and 96.4 % of Control in series [1] (Uric acid 500 µM, replicates and mean); 100.7 % of Control in series [1] (Uric acid 500 µM, replicates and mean, mean).

Take inulin: the “Inulin Clearance” value in series [4] (control rats, individual rat) is 0.354 L/h/kg and 0.451 L/h/kg and 0.405 L/h/kg; in series [4] (control rats, mean), 0.403 L/h/kg; in series [4] (hyperuricemic rats, individual rat) it was 0.475 L/h/kg and 0.299 L/h/kg and 0.369 L/h/kg and 0.248 L/h/kg and 0.215 L/h/kg; in series [4] (hyperuricemic rats, mean), 0.322 L/h/kg.

What is called Kp is the ratio of the level in a tissue or fluid to that in plasma or blood. The AUC(0-t) is exposure summed from dosing to a finite time, without extrapolation to infinity. Lower therefore signals low exposure. Take `CN1CC(=O)NC1=N` [Creatinine, creatinine]: the Plasma concentration in series [5] (control rats, 0.5 min after iv metformin 30 mg/kg or cephalexin 10 mg/kg (creatinine endogenous), individual rat) is 19.0 µM and 21.0 µM; in series [5] (control rats, 30 min after iv metformin 30 mg/kg or cephalexin 10 mg/kg (creatinine endogenous), individual rat), 20.1 µM and 20.4 µM; in series [5] (control rats, 60 min after iv metformin 30 mg/kg or cephalexin 10 mg/kg (creatinine endogenous), individual rat) it was 18.9 µM and 19.0 µM; in series [5] (hyperuricemic rats, 0.5 min after iv metformin 30 mg/kg or cephalexin 10 mg/kg (creatinine endogenous), individual rat) it was 36.4 µM and 30.6 µM; in series [5] (hyperuricemic rats, 30 min after iv metformin 30 mg/kg or cephalexin 10 mg/kg (creatinine endogenous), individual rat) it was 34.4 µM and 30.6 µM; in series [5] (hyperuricemic rats, 60 min after iv metformin 30 mg/kg or cephalexin 10 mg/kg (creatinine endogenous), individual rat), 34.5 µM and 36.2 µM. Moreover, the “Urinary excretion (cumulative)” value in series [5] (control rats, 10 min, individual rats and mean) was 0.04 mg and 0.06 mg and 0.09 mg and 0.07 mg; in series [5] (control rats, 20 min, individual rats and mean) it was 0.10 mg and 0.12 mg and 0.16 mg and 0.13 mg; in series [5] (control rats, 30 min, individual rats and mean), 0.13 mg and 0.19 mg and 0.22 mg and 0.18 mg; in series [5] (control rats, 60 min, individual rats and mean), 0.18 mg and 0.30 mg and 0.32 mg and 0.27 mg; in series [5] (control rats, 120 min, individual rats and mean), 0.46 mg and 0.61 mg and 0.52 mg and 0.53 mg; in series [5] (control rats, 240 min, individual rats and mean), 0.98 mg and 1.44 mg and 1.32 mg and 1.25 mg. The “Urinary excretion (cumulative)” value in series [5] (hyperuricemic rats, 10 min, individual rats and mean) was 0.12 mg (3×) and 0.11 mg; in series [5] (hyperuricemic rats, 20 min, individual rats and mean), 0.19 mg (3×) and 0.20 mg; in series [5] (hyperuricemic rats, 30 min, individual rats and mean), 0.26 mg (2×) and 0.28 mg and 0.25 mg; in series [5] (hyperuricemic rats, 60 min, individual rats and mean), 0.42 mg and 0.39 mg and 0.44 mg and 0.43 mg; in series [5] (hyperuricemic rats, 120 min, individual rats and mean), 0.69 mg and 0.58 mg and 0.73 mg and 0.76 mg; in series [5] (hyperuricemic rats, 240 min, individual rats and mean), 1.22 mg and 0.95 mg and 1.24 mg and 1.48 mg. Also, the AUC0-4 is 5400 µM·min and 5463 µM·min in series [5] (setting [6]); 10502 µM·min and 8634 µM·min in series [5] (setting [7]). Besides, the “Kp, kidney” value is 10.4 and 11.3 in series [5] (setting [6]); 11.7 and 17.3 in series [5] (setting [7]). The Kp at 4 h in series [5] (intravenous, control rats, individual rats and mean) is 8.8; in series [5] (intravenous, hyperuricemic rats, individual rats and mean) it was 12. Moreover, the AUC(0-t) in series [5] (intravenous, AUC0-4, creatinine, control rats, individual rats and mean) was 87.6 µM·h; in series [5] (intravenous, AUC0-4, creatinine, hyperuricemic rats, individual rats and mean), 171 µM·h; in series [5] (iv, AUC0-4, control rats, iv metformin 30 mg/kg or cephalexin 10 mg/kg, creatinine endogenous, mean n=3) it was 89.5 µM·h; in series [5] (iv, AUC0-4, hyperuricemic rats, iv metformin 30 mg/kg or cephalexin 10 mg/kg, creatinine endogenous, mean n=3), 163 µM·h. Besides, the concentration at 0.5 min in series [5] (intravenous, control rats, 0.5 min after iv metformin 30 mg/kg or cephalexin 10 mg/kg (creatinine endogenous), individual rat) came to 17.7 µM; in series [5] (intravenous, control rats, 0.5 min after iv metformin 30 mg/kg or cephalexin 10 mg/kg (creatinine endogenous), mean n=3), 19.2 µM; in series [5] (intravenous, hyperuricemic rats, 0.5 min after iv metformin 30 mg/kg or cephalexin 10 mg/kg (creatinine endogenous), individual rat) it was 24.6 µM; in series [5] (intravenous, hyperuricemic rats, 0.5 min after iv metformin 30 mg/kg or cephalexin 10 mg/kg (creatinine endogenous), mean n=3) it was 30.5 µM. Moreover, the concentration at 30 min in series [5] (intravenous, control rats, 30 min after iv metformin 30 mg/kg or cephalexin 10 mg/kg (creatinine endogenous), individual rat) was found to be 19.5 µM; in series [5] (intravenous, control rats, 30 min after iv metformin 30 mg/kg or cephalexin 10 mg/kg (creatinine endogenous), mean n=3), 20 µM; in series [5] (intravenous, hyperuricemic rats, 30 min after iv metformin 30 mg/kg or cephalexin 10 mg/kg (creatinine endogenous), individual rat), 25.9 µM; in series [5] (intravenous, hyperuricemic rats, 30 min after iv metformin 30 mg/kg or cephalexin 10 mg/kg (creatinine endogenous), mean n=3), 30.3 µM. Further, the concentration at 60 min in series [5] (intravenous, control rats, 60 min after iv metformin 30 mg/kg or cephalexin 10 mg/kg (creatinine endogenous), individual rat) was found to be 22.9 µM; in series [5] (intravenous, control rats, 60 min after iv metformin 30 mg/kg or cephalexin 10 mg/kg (creatinine endogenous), mean n=3), 20.3 µM; in series [5] (intravenous, hyperuricemic rats, 60 min after iv metformin 30 mg/kg or cephalexin 10 mg/kg (creatinine endogenous), individual rat), 26.5 µM; in series [5] (intravenous, hyperuricemic rats, 60 min after iv metformin 30 mg/kg or cephalexin 10 mg/kg (creatinine endogenous), mean n=3) it was 32.4 µM.

Values taken from publication PMC6450621, “Changes of drug pharmacokinetics mediated by downregulation of kidney organic cation transporters Mate1 and Oct2 in a rat model of hyperuricemia” (PLoS ONE, 2019).
